ChEMBL document CHEMBL1201862, “PubChem BioAssay data set” (2004)
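Cultured in 96-well plates, cells were exposed to test compound for 48 hours across five concentrations. GI50 = concentration required for 50% inhibition of growth.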 Activity calls are given as the source filed them. Cut-off read from the data, not from the text of the source: active = GI50 up to about 1.1 µM and inactive = higher.

What was measured:
Assay in all cases: NCI-60 cell line screen, 48 h
BT-549 = tested on: BT-549
CAKI-1 = tested on: CAKI-1
EKVX = tested on: EKVX
HCT-15 = tested on: HCT-15
HOP-62 = tested on: HOP-62
HT-29 = tested on: HT-29
MDA-MB-435 = tested on: MDA-MB-435
MDA-N = tested on: MDA-N
NCI-H460 = tested on: NCI-H460
NCI-H522 = tested on: NCI-H522
OVCAR-5 = tested on: OVCAR-5
PC-3 = tested on: PC-3
RPMI-8226 = tested on: RPMI-8226
SF-268 = tested on: SF-268
SF-295 = tested on: SF-295
SK-MEL-2 = tested on: SK-MEL-2
SK-MEL-5 = tested on: SK-MEL-5
TK-10 = tested on: TK-10
Hs-578T = tested on: Hs-578T

Row | Structure (SMILES) | GI50 (BT-549) | GI50 (CAKI-1) | GI50 (EKVX) | GI50 (HCT-15) | GI50 (HOP-62) | GI50 (HT-29) | GI50 (MDA-MB-435) | GI50 (MDA-N) | GI50 (NCI-H460) | GI50 (NCI-H522) | GI50 (OVCAR-5) | GI50 (PC-3) | GI50 (RPMI-8226) | GI50 (SF-268) | GI50 (SF-295) | GI50 (SK-MEL-2) | GI50 (SK-MEL-5) | GI50 (TK-10) | GI50 (Hs-578T)
1 | OC(Cc1ccccc1)(Cc1ccccc1)c1ccccc1 | 18.7 µM (inactive) | 23.2 µM (inactive) | 12.3 µM (inactive) | 20.5 µM | 19.7 µM (inactive) | 15.9 µM (inactive) | 17.5 µM (inactive) | 15.2 µM (inactive) | 19.4 µM (inactive) | 14.7 µM (inactive) | 17.2 µM (inactive) | 18.7 µM (inactive) | 29.3 µM (inactive) | 14.9 µM (inactive) | 19.3 µM (inactive) | 15.3 µM (inactive) | 18 µM (inactive) | 19.8 µM (inactive) | –
2 | O=C(/C=C/c1csc(-c2ccccc2)n1)NCc1ccc(C(=O)NCc2ccccc2)cc1 | > 100 µM (inactive) | 25.2 µM (inactive) | > 100 µM (inactive) | > 100 µM | 11.3 µM (inactive) | 41.2 µM (inactive) | > 100 µM (inactive) | – | > 100 µM (inactive) | 64.7 µM (inactive) | > 100 µM (inactive) | > 100 µM (inactive) | > 100 µM (inactive) | 35.3 µM (inactive) | 30.4 µM (inactive) | > 100 µM (inactive) | > 100 µM (inactive) | 31.9 µM (inactive) | 13.3 µM (inactive)
3 | COc1cccc(/C=C2/Sc3scc(-c4ccccc4)[n+]3C2=O)c1O | 21.7 µM (inactive) | 21.3 µM (inactive) | 19.2 µM (inactive) | 13.6 µM | 23.8 µM (inactive) | 20.8 µM (inactive) | 8.65 µM (inactive) | – | 17.3 µM (inactive) | 18.8 µM (inactive) | 36.7 µM (inactive) | 32.1 µM (inactive) | – | 41.2 µM (inactive) | 37.3 µM (inactive) | 23.3 µM (inactive) | 14.4 µM (inactive) | 31 µM (inactive) | 42.7 µM (inactive)
4 | O=S1(=O)OCCCOS(=O)(=O)C1Br | > 100 µM (inactive) | > 100 µM (inactive) | > 100 µM (inactive) | > 100 µM | > 100 µM (inactive) | > 100 µM (inactive) | > 100 µM (inactive) | > 100 µM (inactive) | – | > 100 µM (inactive) | > 100 µM (inactive) | > 100 µM (inactive) | > 100 µM (inactive) | > 100 µM (inactive) | > 100 µM (inactive) | > 100 µM (inactive) | > 100 µM (inactive) | > 100 µM (inactive) | –
5 | Cc1nc(-c2cc3c(ccc4ccccc43)oc2=O)cc2c1c(=O)oc1ccc3ccccc3c12 | > 100 µM (inactive) | > 100 µM (inactive) | > 100 µM (inactive) | > 100 µM | > 100 µM (inactive) | > 100 µM (inactive) | > 100 µM (inactive) | – | > 100 µM (inactive) | > 100 µM (inactive) | > 100 µM (inactive) | > 100 µM (inactive) | – | > 100 µM (inactive) | > 100 µM (inactive) | > 100 µM (inactive) | > 100 µM (inactive) | > 100 µM (inactive) | –
6 | CCOC(=O)/C=C(\C)Sc1cc(O)c2ccccc2c1O | 22 µM (inactive) | 23.5 µM (inactive) | 27.9 µM (inactive) | 17.4 µM | 20.2 µM (inactive) | 22.2 µM (inactive) | 2.65 µM (inactive) | – | 19.5 µM (inactive) | 10.1 µM (inactive) | 24.4 µM (inactive) | 26.4 µM (inactive) | 24.8 µM (inactive) | 11 µM (inactive) | 24.6 µM (inactive) | 20.9 µM (inactive) | 12.6 µM (inactive) | 23.7 µM (inactive) | 58.9 µM (inactive)
7 | CCOC(=O)N/N=C(\Cc1ccccc1)OCC | > 100 µM (inactive) | – | > 100 µM (inactive) | > 100 µM | > 100 µM (inactive) | > 100 µM (inactive) | > 100 µM (inactive) | > 100 µM (inactive) | – | > 100 µM (inactive) | > 100 µM (inactive) | > 100 µM (inactive) | > 100 µM (inactive) | > 100 µM (inactive) | > 100 µM (inactive) | > 100 µM (inactive) | > 100 µM (inactive) | > 100 µM (inactive) | –
8 | OCC1OC(NCCNCCNC2OC(CO)C(O)C(O)C2O)C(O)C(O)C1O (stereo unspecified) | > 100 µM (inactive) | – | > 100 µM (inactive) | > 100 µM | > 100 µM (inactive) | > 100 µM (inactive) | – | > 100 µM (inactive) | > 100 µM (inactive) | > 100 µM (inactive) | > 100 µM (inactive) | > 100 µM (inactive) | > 100 µM (inactive) | > 100 µM (inactive) | > 100 µM (inactive) | > 100 µM (inactive) | > 100 µM (inactive) | > 100 µM (inactive) | > 100 µM (inactive)
9 | CC1=CC(=O)C(=C(C)C)CC1 | > 100 µM (inactive) | > 100 µM (inactive) | > 100 µM (inactive) | > 100 µM | > 100 µM (inactive) | > 100 µM (inactive) | > 100 µM (inactive) | > 100 µM (inactive) | > 100 µM (inactive) | > 100 µM (inactive) | > 100 µM (inactive) | > 100 µM (inactive) | – | > 100 µM (inactive) | > 100 µM (inactive) | – | > 100 µM (inactive) | > 100 µM (inactive) | > 100 µM (inactive)
10 | O=C1c2ccccc2-c2nc3ccc(O)cc3n21 | > 100 µM (inactive) | > 100 µM (inactive) | > 100 µM (inactive) | > 100 µM | > 100 µM (inactive) | > 100 µM (inactive) | – | > 100 µM (inactive) | > 100 µM (inactive) | > 100 µM (inactive) | > 100 µM (inactive) | > 100 µM (inactive) | > 100 µM (inactive) | > 100 µM (inactive) | > 100 µM (inactive) | > 100 µM (inactive) | > 100 µM (inactive) | > 100 µM (inactive) | –
11 | CC1(C)CC(=O)C(=CNC(=O)c2ccncc2)C(=O)C1 | > 100 µM (inactive) | > 100 µM (inactive) | > 100 µM (inactive) | > 100 µM | > 100 µM (inactive) | > 100 µM (inactive) | > 100 µM (inactive) | > 100 µM (inactive) | > 100 µM (inactive) | > 100 µM (inactive) | > 100 µM (inactive) | > 100 µM (inactive) | – | > 100 µM (inactive) | > 100 µM (inactive) | > 100 µM (inactive) | > 100 µM (inactive) | > 100 µM (inactive) | > 100 µM (inactive)
12 | Cn1/c(=N\N=C2\C=C3CCCCC3(C)CC2)sc2ccccc21 (stereo unspecified) | > 100 µM (inactive) | > 100 µM (inactive) | > 100 µM (inactive) | > 100 µM | > 100 µM (inactive) | > 100 µM (inactive) | > 100 µM (inactive) | > 100 µM (inactive) | > 100 µM (inactive) | > 100 µM (inactive) | > 100 µM (inactive) | > 100 µM (inactive) | – | > 100 µM (inactive) | > 100 µM (inactive) | > 100 µM (inactive) | > 100 µM (inactive) | > 100 µM (inactive) | > 100 µM (inactive)
13 | COC(=O)C1=C(CCC[C@H](C)O[Si](C)(C)C(C)(C)C)NC(=O)N2[C@@H](CCO)CC[C@H]12 | 15 µM (inactive) | 17.2 µM (inactive) | 12.4 µM (inactive) | 15 µM | 14.1 µM (inactive) | 15.4 µM (inactive) | 17.7 µM (inactive) | – | 20.3 µM (inactive) | 5.71 µM (inactive) | 19.4 µM (inactive) | – | 14.9 µM (inactive) | 14.6 µM (inactive) | 11.7 µM (inactive) | – | 7.82 µM (inactive) | 18.6 µM (inactive) | –
14 | COc1ccc(N/N=C/C2=CC(C)(C)C(C#N)(C#N)C(O)=C2C#N)cc1 | – | 36.6 µM (inactive) | 66.5 µM (inactive) | 14.1 µM | 43.6 µM (inactive) | 43.1 µM (inactive) | 65.3 µM (inactive) | 54.5 µM (inactive) | 20.9 µM (inactive) | 37.7 µM (inactive) | 69.8 µM (inactive) | 27.8 µM (inactive) | 35.6 µM (inactive) | 41 µM (inactive) | 36.6 µM (inactive) | 49.2 µM (inactive) | 69.7 µM (inactive) | > 100 µM (inactive) | 44.7 µM (inactive)
15 | O=C1O/C(=C\C=C\CO)C=C1/C=C/CO [LISSOCLINOLIDE] | 20 µM (inactive) | 14.5 µM (inactive) | 15.3 µM (inactive) | 12.3 µM | – | 23 µM (inactive) | 35.7 µM (inactive) | 21.3 µM (inactive) | 32.1 µM (inactive) | 10.3 µM (inactive) | 20 µM (inactive) | 14.3 µM (inactive) | 16.4 µM (inactive) | 24.5 µM (inactive) | 39 µM (inactive) | 19.3 µM (inactive) | 22.1 µM (inactive) | 19.1 µM (inactive) | –
16 | O=C(N/N=C/c1ccc(O)cc1)NNCCO | > 100 µM (inactive) | > 100 µM (inactive) | – | > 100 µM | > 100 µM (inactive) | > 100 µM (inactive) | > 100 µM (inactive) | > 100 µM (inactive) | > 100 µM (inactive) | > 100 µM (inactive) | > 100 µM (inactive) | > 100 µM (inactive) | – | – | > 100 µM (inactive) | > 100 µM (inactive) | > 100 µM (inactive) | > 100 µM (inactive) | > 100 µM (inactive)
17 | CN1CCC/C1=N\C#N | – | > 100 µM (inactive) | > 100 µM (inactive) | > 100 µM | > 100 µM (inactive) | > 100 µM (inactive) | > 100 µM (inactive) | > 100 µM (inactive) | > 100 µM (inactive) | > 100 µM (inactive) | > 100 µM (inactive) | > 100 µM (inactive) | > 100 µM (inactive) | > 100 µM (inactive) | > 100 µM (inactive) | > 100 µM (inactive) | > 100 µM (inactive) | > 100 µM (inactive) | > 100 µM (inactive)
